From patent US20230304058A1, “NOVEL 5'CAP ANALOG HAVING CAP2 STRUCTURE AND PREPARATION METHOD THEREFOR” (Shenzhen Rhegen Biotechnology Co., Ltd., priority 2020, published 2023)

How the values were obtained:
[1] = tested on: TLR3, TLR7, TLR8 and RIG-1; assay: Intracellular immunogenicity of capped mRNA by RNA immunoprecipitation and quantitative PCR; format: cell-based; conditions: relative to ARCA; Human-derived PBMC cells, 5 μg mRNA, Lipofectamine 2000, 24 h
Experimental: Experimental methods: the intracellular immunoproteins TLR3, TLR7, TLR8 and RIG-1 were immunoprecipitated together with their bound RNAs by RNA immunoprecipitation, and finally these mRNAs were identified by real-time quantitative PCR, and their relative abundance was proportional to their immunogenicity.
The cells were collected by trypsin digestion 24 h later and resuspended in PBS, centrifuged, and collected.
Fixative was added to the cells, and after 15 minutes glycine was added for termination of fixation, followed by centrifugation to collect the cells. Cells were resuspended by adding lysate, incubated on ice at 4° C. for 30 min, centrifuged at 2400 g for 10 min, and the supernatant was collected.
TLR3, TLR7, TLR8 and RIG-1 antibodies (2-10 μg) were added to the supernatant (6-10 mg) followed by gentle incubation at 4° C. for 2 hours. Protein AIG beads (40 μL) were then added to them and incubated gently for 1 h at 4° C.
Centrifuge at 2500 rpm for 30 seconds with precipitated magnetic beads and remove the supernatant. Resuspend the beads in 500 μL of RIP buffer. Wash in RIP buffer a total of three times, followed by one wash in PBS.
Resuspend magnetic beads in TRIzol RNA Extraction Reagent (1 mL) and isolate co-precipitated RNA, and then elute RNA using nuclease-free water (20 μL).
6. Reverse transcribe (RT) the RNA into cDNA and design primers according to the mRNA sequence for quantitative PCR analysis. mRNA immunogenicity is proportional to the number of mRNA copies precipitated by magnetic beads.

T7 Enzyme Mix [2] = molecular target: T1, T7 Enzyme Mix (Escherichia phage T7, UniProt P00573); conditions: background, co-transcriptional capping; cited from earlier work
mRNA [3] = conditions: background, co-transcriptional capping; cited from earlier work
[4] = background; cited from earlier work
T7 Enzyme Mix [5] = molecular target: T1, T7 Enzyme Mix; assay: In vitro transcription mRNA synthesis with cap analog, reaction yield; format: biochemical; conditions: per ml transcription reaction system; 37° C. for 6 h; LiCl purification
Experimental: 1. Before synthesizing mRNA, linearize the plasmid with Notl, digested at […] overnight;
2. Extract with DNA template;
React at 37° C. for 6 h. Digest with TURBO DNase for 15 min.
4. Purify the transcription products using LiCl solution and calculate the reaction yields.

mRNA [6] = assay: mRNA capping rate by RNase H cleavage and LC-MS; format: biochemical; conditions: ratio of capped and uncapped mRNA
Source text: The mRNA molecules with different Cap structures obtained in Example 1 were subjected to enzymatic cleavage, and the ratio of capped and uncapped mRNA molecules could be determined in a liquid chromatography-mass spectrometry analysis experiment.
1. Concentrate the beads using a magnet, aspirate the supernatant storage solution, and add an equal volume of 0.1 M NaOH +0.05 M NaCl;
2. Aspirate the supernatant and resuspend the beads with an equal volume of 0.1 M NaCl, keep the concentration constant;
3. Anneal mRNA and cleavage tags, configure the following reaction system;
Gradient annealing: 95° C. 5 min
4. Combining cleavage tags with beads • Beads were centrifuged at 15,000 g for 5 min, and the supernatant was removed, then 120 μl of annealed mRNA and tags were added and incubated for 30 min at room temperature, during which time they were gently shaken to ensure adequate binding.
5. Enzyme cleavage using RNase H; • Add 10 μl RNase H and incubate at 37° C. for 3 h. Precipitate the beads with magnet and discard the supernatant. • Add 100 μl washing buffer, mix thoroughly, magnet precipitate for 2 min, and discard the supernatant. Repeat 3 times. • Wash with DI water for 3 times.
6. Hydrolysis with RppH; • Use 10 units RppH in nebuffer 2 to hydrolyze at room temperature for 1 h.
DI water was aspirated, 100 μl of 75% ethanol preheated to 80° C. was added, incubat for 3 min, and magnet precipitat for 3 min. The supernatant was taken, followed by evaporating, and centrifuge for 45 min to a volume of 10 μl. Finally, the sample was resuspended in 50 μl of […] EDTA/1% MeOH and left for LC-MS analysis.
9. the mRNA capping rate of different Cap analogs synthesized was analyzed with LC-MS.

T1 sequence (P00573 whole entry): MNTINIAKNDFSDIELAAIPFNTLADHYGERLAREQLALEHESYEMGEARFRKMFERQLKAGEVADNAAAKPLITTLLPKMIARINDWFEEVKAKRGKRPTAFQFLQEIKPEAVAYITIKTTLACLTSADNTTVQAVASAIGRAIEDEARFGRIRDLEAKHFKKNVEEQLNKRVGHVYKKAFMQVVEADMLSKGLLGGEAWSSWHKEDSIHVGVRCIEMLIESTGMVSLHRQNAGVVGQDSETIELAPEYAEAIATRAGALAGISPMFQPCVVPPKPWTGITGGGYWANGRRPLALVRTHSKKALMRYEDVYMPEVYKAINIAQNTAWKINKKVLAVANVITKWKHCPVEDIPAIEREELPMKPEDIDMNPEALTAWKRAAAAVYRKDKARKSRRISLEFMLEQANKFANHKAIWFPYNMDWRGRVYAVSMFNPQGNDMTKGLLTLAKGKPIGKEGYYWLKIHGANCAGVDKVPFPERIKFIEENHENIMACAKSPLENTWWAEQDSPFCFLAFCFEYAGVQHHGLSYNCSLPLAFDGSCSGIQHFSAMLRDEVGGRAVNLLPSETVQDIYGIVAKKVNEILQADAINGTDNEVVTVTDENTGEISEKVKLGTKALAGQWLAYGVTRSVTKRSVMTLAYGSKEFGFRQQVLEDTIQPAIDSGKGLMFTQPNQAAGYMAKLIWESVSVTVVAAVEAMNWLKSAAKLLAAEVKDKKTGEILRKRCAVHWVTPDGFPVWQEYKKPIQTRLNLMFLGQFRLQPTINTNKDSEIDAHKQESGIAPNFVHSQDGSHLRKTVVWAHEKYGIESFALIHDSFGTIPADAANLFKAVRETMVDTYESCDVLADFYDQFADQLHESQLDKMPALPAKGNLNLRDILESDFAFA

Row | SMILES | Intracellular immunogenicity of mRNA when using different Cap structures [1] | RNA prepared per ml of transcription reaction system (T7 Enzyme Mix [2]) | capping efficiency (mRNA [3]) | immunogenicity of transcribed product [4] | Mass of final product obtained from 1 ml mRNA synthesis reaction system (T7 Enzyme Mix [5]) | mRNA capping rates when using different Cap structures (mRNA [6])
1 | COC1C(OP(=O)(O)OCC2OC(n3cnc4c(=O)[nH]c(N)nc43)C(O)C2O)C(COP(=O)(O)OP(=O)([O-])OP(=O)(O)OCC2OC(n3c[n+](C)c4c(=O)[nH]c(N)nc43)C(O)C2O)OC1n1cnc2c(N)ncnc21 (centres unmarked) [Cleancap] | 0.76 | 4 mg | 90% | less immunogenic than ARCA | – | –
2 | CO[C@@H]1[C@H](O)[C@@H](COP(=O)(O)O[C@H]2[C@@H](OC)[C@H](n3ccc(=O)[nH]c3=O)O[C@@H]2COP(=O)(O)OP(=O)(O)OP(=O)([O-])OC[C@H]2O[C@@H](n3c[n+](C)c4c(=O)[nH]c(N)nc43)[C@H](O)[C@@H]2OC)O[C@H]1n1ccc(N)nc1=O [Cap analog 28, 3-O-Me-m7G(5′)ppp(5′)(2′OMeU)p(2′OMeC)] | 0.52 | – | – | – | 4.8 mg | 94.62%
3 | CO[C@@H]1[C@H](O)[C@@H](COP(=O)(O)O[C@H]2[C@@H](OC)[C@H](n3cnc4c(=O)[nH]c(N)nc43)O[C@@H]2COP(=O)(O)OP(=O)(O)OP(=O)([O-])OC[C@H]2O[C@@H](n3c[n+](C)c4c(=O)[nH]c(N)nc43)[C@H](O)[C@@H]2OC)O[C@H]1n1cnc2c(N)ncnc21 [Cap analog 22, 3-O-Me-m7G(5′)ppp(5′)(2′OMeG)p(2′OMeA)] | 0.29 | – | – | – | 4.6 mg | 94.83%
4 | CO[C@@H]1[C@H](OP(=O)(O)OC[C@H]2O[C@@H](n3cnc4c(=O)[nH]c(N)nc43)[C@H](OC)[C@@H]2O)[C@@H](COP(=O)(O)OP(=O)(O)OP(=O)([O-])OC[C@H]2O[C@@H](n3c[n+](C)c4c(=O)[nH]c(N)nc43)[C@H](O)[C@@H]2OC)O[C@H]1n1ccc(=O)[nH]c1=O [Cap analog 20, 3-O-Me-m7G(5′)ppp(5′)(2′OMeU)p(2′OMeG)] | 0.51 | – | – | – | 4.6 mg | 94.42%
5 | CO[C@@H]1[C@H](OP(=O)(O)OC[C@H]2O[C@@H](n3cnc4c(N)ncnc43)[C@H](OC)[C@@H]2O)[C@@H](COP(=O)(O)OP(=O)(O)OP(=O)([O-])OC[C@H]2O[C@@H](n3c[n+](C)c4c(=O)[nH]c(N)nc43)[C@H](O)[C@@H]2OC)O[C@H]1n1ccc(=O)[nH]c1=O [Cap analog 24, 3-O-Me-m7G(5′)ppp(5′)(2′OMeU)p(2′OMeA)] | 0.48 | – | – | – | 4.7 mg | 94.72%
6 | CO[C@H]1[C@@H](O)[C@H](n2c[n+](C)c3c(=O)[nH]c(N)nc32)O[C@@H]1COP(=O)(O)OP(=O)(O)OP(=O)(O)OC[C@H]1O[C@@H](n2cnc3c(=O)[nH]c(N)nc32)[C@H](O)[C@@H]1O [ARCA] | 1 | ≤ 1.5 mg | 70% | highly immunogenic | – | –
7 | CO[C@@H]1[C@H](O)[C@@H](COP(=O)(O)O[C@H]2[C@@H](OC)[C@H](n3ccc(=O)[nH]c3=O)O[C@@H]2COP(=O)(O)OP(=O)(O)OP(=O)([O-])OC[C@H]2O[C@@H](n3c[n+](C)c4c(=O)[nH]c(N)nc43)[C@H](O)[C@@H]2O)O[C@H]1n1ccc(=O)[nH]c1=O [Cap analog 16, m7G(5′)ppp(5′)(2′OMeU)p(2′OMeU)] | 0.48 | – | – | – | 4.2 mg | 94.84%
8 | CO[C@@H]1[C@H](O)[C@@H](COP(=O)(O)O[C@H]2[C@@H](OC)[C@H](n3cnc4c(N)ncnc43)O[C@@H]2COP(=O)(O)OP(=O)(O)OP(=O)([O-])OC[C@H]2O[C@@H](n3c[n+](C)c4c(=O)[nH]c(N)nc43)[C@H](O)[C@@H]2OC)O[C@H]1n1cnc2c(=O)[nH]c(N)nc21 [Cap analog 17, 3-O-Me-m7G(5′)ppp(5′)(2′OMeA)p(2′OMeG)] | 0.44 | – | – | – | 4.7 mg | 94.91%
